{"source": "patent US20130040882A1", "about": "“USE OF FIBROBLAST GROWTH FACTOR FRAGMENTS” (NOVARTIS AG, priority 2003, published 2013)", "key": {"uterine gene expression": {"test_system": "uterine gene expression", "assay": "Ranking of drug activity according to uterine GEP (GEP scoring axis, PCA; estrogenic potency score)", "format": "in vivo, cynomolgus monkeys (Macaca fascicularis)", "excerpt": "To define a reference axis representing the desired pharmacological/toxicological action, we used a priori knowledge of 2 groups representing or approximating the extremes of the condition under study. These consisted of the OVX group (OVX untreated animals representing the one extreme) and OVX+estradiol (OVX animals treated with estradiol, an agent know to exercise a well-defined action, representing the other extreme). These two groups were used to quantitatively scale the axis. Other compounds were then positioned on this axis whereby the drugs could be ranked with regard to specific aspects of a pharmacological/toxicological action.\nGenerally, the data derived from an individual microarray, proteomic, or metabolite profiling experiment can be considered as a fingerprint. […] Thus, selection and elimination of the appropriate features is an important aspect of this methodology and the quantitative nature of this approach depends on the features used to define the axis of drug action.\nIn the case of a well-defined condition, it is possible to invoke a priori knowledge on the selection of features. If the molecular biology of the specific drug action is known, the features (e.g. genes, metabolites) to be used for the definition of the axis can be defined a priori. In the case of a less-well-defined condition, it is possible to use univariate filters (in this case, gene intensity >50, ≧1.5-fold change in expression vs. controls [OVX], and statistical significance and statistical methods to identify and exclude non-informative features.\nIssues of transformation, centering (variable-wise), and scaling of the data were considered. In the case of microarrays, the data were log10-transformed and probe set-wise centered. Generally, no scaling was applied. When using only a small number of biologically identified features, these were scaled to unit variance.\nTo calculate the axis of drug action, a principal component axis (PCA) was performed using only the 2 treatment groups that were at the extremes (the untreated OVX animals vs. the estrodiol-treated OVX animals). Massart D L et al., Handbook for Chemometrics and Qualimetrics, Part a. (Elsevier; 1997); Jolliffe I T. Principal Component Analysis. 2nd Edition (Springer; New York, N.Y., 2002). Only 1 principal component (PC) was calculated, which was a weighted linear combination of all features in the input data pointing in the direction of maximum variance. The weights of the probe sets in this linear combination were called “loadings” and their absolute value is a measure of their importance in explaining the difference between the 2 groups. Every measurement in the experiment (e.g. microarray) could then be represented by its coordinate (score) on the PC. Alternatively, to obtain an even better separation between the groups, the PLS-DA (Partial-Least-Squares Discriminate Analysis) method with a 0/1 dummy variable as response vector was used. […] Massart D L et al., Handbook of Chemometrics and Qualimetrics, Part b. (Elsevier; 1997). The next step was identification of the features that were important for the definition of the axis. This was based on the magnitude of their loadings and their statistical significance using error estimates based on cross-validation and/or normal probability plots of the loadings. Hunter W G & Hunter J S. Statistics for Experimenters: an Introduction to Design, Data Analysis, and Model Building. 1st Edition (Wiley; 1978). This enabled calculation of a new PCA model using only the important features.\nIf a pharmacological or toxicological action affected multiple biochemical pathways that were represented by grossly different numbers of features in the measurement, block scaling was used. Eriksson L et al., Multi-and Megavariate Data Analysis-Principles and Applications. (Umetrics Academy; 2001). This attributed the same influence to all pathways (groups of features) in the calculation of the PCA model. […]"}, "[1]": {"test_system": "transcript abundance in organs", "assay": "Salmon calcitonin/PTS893 monkey study: multiorgan gene expression profiling (HG-U95Av2 arrays)", "format": "in vivo, cynomolgus monkeys (Macaca fascicularis)", "design": "key: B = bone; K = kidney; M = muscle; P = pituitary; L = liver; T = trachea", "protocol": "A set of tissues was selected for gene expression profiling. These set included samples from kidney, bone, muscle, duodenum, pituitary and liver.\nHG-U95Av2 GeneChip® expression probe arrays (Affymetrix, Santa Clara Calif. USA) were used. […] Workstation 400 (Affymetrix).\nData analysis was performed with the Silicon Genetics software package GeneSpring version 4.2.1 and 5. Average difference values below 20 were set to 20.\nThe threshold range for considering as up or down regulation was determined within the context of the biological interpretation of the study.\nIncrease and decrease reported here refer to transcript abundance, unless specifically stated."}, "[2]": {"details": "123 genes thought to have a role in uterine function"}, "[3]": {"details": "225 genes, statistically significant >1.5-fold changes"}, "[4]": {"details": "673 genes, >1.5-fold change disregarding statistical significance"}, "[5]": {"details": "Effects on Osteoblasts, autocrine/paracrine regulation of osteoblast function"}, "[6]": {"details": "Effects on Osteoblasts, endocrine regulation of osteoblast function"}, "[7]": {"details": "Effects on Osteoclasts: bone resorption by osteoclast"}, "[8]": {"details": "Effects on Osteoclasts: osteoclast determination, survival and differentiation"}, "[9]": {"details": "Extracellular matrix, collagen synthesis"}}, "data": [{"compound": "O=C(c1ccc(OCCN2CCCCC2)cc1)c1c(-c2ccc(O)cc2)sc2cc(O)ccc12", "note": "[raloxifene]", "values": [{"measurement": "Estrogenic score (GEP score; OVX 0, estradiol 100)", "setting": "uterine gene expression; [2]", "result": 20}, {"measurement": "Estrogenic score (GEP score; OVX 0, estradiol 100)", "setting": "uterine gene expression; [3]", "result": 23}, {"measurement": "Estrogenic score (GEP score; OVX 0, estradiol 100)", "setting": "uterine gene expression; [4]", "result": 34}, {"measurement": "Estrogenic scores in specific gene groups (categories)", "setting": "uterine gene expression; subanalysis per gene class", "result": "−11 to 32"}]}, {"compound": "CC/C(=C(\\c1ccccc1)c1ccc(OCCN(C)C)cc1)c1ccccc1", "note": "[tamoxifen]", "values": [{"measurement": "Estrogenic score (GEP score; OVX 0, estradiol 100)", "setting": "uterine gene expression; [2]", "result": 69}, {"measurement": "Estrogenic score (GEP score; OVX 0, estradiol 100)", "setting": "uterine gene expression; [3]", "result": 59}, {"measurement": "Estrogenic score (GEP score; OVX 0, estradiol 100)", "setting": "uterine gene expression; [4]", "result": 71}]}, {"compound": "Leu8, Asp10, Lysll, A1a16, G1n18, Thr33, A1a34 human PTH 1-34 [PTS893, Leu8, Asp10, Lysll, A1a16, G1n18, Thr33, A1a34 human PTH 1-34 [hPTH(1-34)]]", "values": [{"measurement": "Organs where changes in expression were seen: Cyclin-dependent kinases 5, 6, 10", "setting": "[1]; Cell cycle", "result": "B"}, {"measurement": "Organs where changes in expression were seen: Cyclin-dependent kinases inhibitor 1A, 1C, 2D)", "setting": "[1]; Cell cycle", "result": "B"}, {"measurement": "Organs where changes in expression were seen: Cyclins (A, A2, B1, C, D2, E2, G1, G2)", "setting": "[1]; Cell cycle", "result": "B"}, {"measurement": "Organs where changes in expression were seen: Bone Morphogenetic Proteins", "setting": "[1]; [5]", "result": "B"}, {"measurement": "Organs where changes in expression were seen: Fibroblast Growth Factors", "setting": "[1]; [5]", "result": "B"}, {"measurement": "Organs where changes in expression were seen: Insulin-like Growth Factors", "setting": "[1]; [5]", "result": "B"}, {"measurement": "Organs where changes in expression were seen: TGFs", "setting": "[1]; [5]", "result": "B"}, {"measurement": "Organs where changes in expression were seen: Tob", "setting": "[1]; [5]", "result": "B"}, {"measurement": "Organs where changes in expression were seen: Activin", "setting": "[1]; [6]", "result": "B"}, {"measurement": "Organs where changes in expression were seen: Retinoic receptor X", "setting": "[1]; [6]", "result": "B"}, {"measurement": "Organs where changes in expression were seen: Y-box binding protein", "setting": "[1]; Effects on Osteoblasts, transcription factor that regulates collagen type 1 synthesis", "result": "B"}, {"measurement": "Organs where changes in expression were seen: H+ ATP-ases", "setting": "[1]; [7]", "result": "B"}, {"measurement": "Organs where changes in expression were seen: ODF/OPGL: osteoprotegerin ligand", "setting": "[1]; [7]", "result": "B"}, {"measurement": "Organs where changes in expression were seen: Granulocyte to macrophage colony-stimulating factor (CSF1)", "setting": "[1]; [8]", "result": "B"}, {"measurement": "Organs where changes in expression were seen: Monocyte to macrophage differentiation associate (MMD)", "setting": "[1]; [8]", "result": "B"}, {"measurement": "Organs where changes in expression were seen: PU.1 (SPI1)", "setting": "[1]; [8]", "result": "B"}, {"measurement": "Organs where changes in expression were seen: Aggrecan", "setting": "[1]; Extracellular matrix component", "result": "B"}, {"measurement": "Organs where changes in expression were seen: Chondroitin sulphate proteoglycan", "setting": "[1]; Extracellular matrix component", "result": "B"}, {"measurement": "Organs where changes in expression were seen: Dermatopontin", "setting": "[1]; Extracellular matrix component", "result": "B"}, {"measurement": "Organs where changes in expression were seen: Heparan sulphate proteoglycan", "setting": "[1]; Extracellular matrix component", "result": "B"}, {"measurement": "Organs where changes in expression were seen: Syndecan", "setting": "[1]; Extracellular matrix component", "result": "B"}, {"measurement": "Organs where changes in expression were seen: Integrins", "setting": "[1]; Extracellular matrix, cell attachment, signal transduction", "result": "B"}, {"measurement": "Organs where changes in expression were seen: Lysyl hydroxylase", "setting": "[1]; [9]", "result": "B"}, {"measurement": "Organs where changes in expression were seen: Procollagen endopeptidase/proteinase", "setting": "[1]; [9]", "result": "B"}, {"measurement": "Organs where changes in expression were seen: Adenylate cyclase", "setting": "[1]; Signal transduction", "result": "B"}, {"measurement": "Organs where changes in expression were seen: CREM", "setting": "[1]; Signal transduction", "result": "B"}, {"measurement": "Organs where changes in expression were seen: Calcyclin binding protein", "setting": "[1]; Signal transduction", "result": "B"}, {"measurement": "Organs where changes in expression were seen: MAPK", "setting": "[1]; Signal transduction", "result": "B"}, {"measurement": "Organs where changes in expression were seen: Phosphatidylinositol pathway", "setting": "[1]; Signal transduction", "result": "B"}, {"measurement": "Organs where changes in expression were seen: Phosphodiesterase (IB, 4A, 4B)", "setting": "[1]; Signal transduction", "result": "B"}, {"measurement": "Organs where changes in expression were seen: Phospholipase (C, D)", "setting": "[1]; Signal transduction", "result": "B"}, {"measurement": "Organs where changes in expression were seen: SMAD pathway", "setting": "[1]; Signal transduction", "result": "B"}, {"measurement": "Organs where changes in expression were seen: STAT pathway", "setting": "[1]; Signal transduction", "result": "B"}, {"measurement": "Organs where changes in expression were seen: Amelogenin (cement component)", "setting": "[1]; cynomolgus monkey, in vivo", "result": "B"}, {"measurement": "Organs where changes in expression were seen: Dentin (mineral matrix protein)", "setting": "[1]; cynomolgus monkey, in vivo", "result": "B"}, {"measurement": "Organs where changes in expression were seen: VEGF", "setting": "[1]; cynomolgus monkey, in vivo", "result": "B"}]}]}
